In ChEMBL document CHEMBL1150976, “The selectivity of protein kinase inhibitors: a further update” (Biochem J, 2007):

Assays:
[1] = target: T1, Dual specificity tyrosine-phosphorylation-regulated kinase 3 (Homo sapiens) (UniProt O43781); assay: Percentage DYRK3 activity remaining in the presence of 25uM inhibitor
T1 sequence (whole entry): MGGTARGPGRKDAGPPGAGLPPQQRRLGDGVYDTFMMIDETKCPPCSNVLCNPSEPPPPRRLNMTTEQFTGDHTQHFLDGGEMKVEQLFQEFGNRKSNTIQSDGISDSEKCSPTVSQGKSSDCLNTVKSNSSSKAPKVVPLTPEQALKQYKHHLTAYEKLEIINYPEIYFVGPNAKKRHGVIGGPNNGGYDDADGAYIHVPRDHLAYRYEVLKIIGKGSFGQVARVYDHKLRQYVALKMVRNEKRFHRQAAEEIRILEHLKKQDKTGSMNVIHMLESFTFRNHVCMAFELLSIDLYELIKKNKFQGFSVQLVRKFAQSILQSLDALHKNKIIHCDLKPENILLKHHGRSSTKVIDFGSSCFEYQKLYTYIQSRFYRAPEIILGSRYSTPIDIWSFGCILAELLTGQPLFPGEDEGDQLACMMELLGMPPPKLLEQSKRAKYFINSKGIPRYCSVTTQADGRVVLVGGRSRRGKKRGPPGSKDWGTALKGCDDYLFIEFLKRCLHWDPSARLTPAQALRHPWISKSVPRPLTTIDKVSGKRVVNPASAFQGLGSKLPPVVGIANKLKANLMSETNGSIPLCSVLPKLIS

[2] = target: Serine/threonine-protein kinase Nek6 (Homo sapiens) (UniProt Q9HC98); assay: Percentage NEK6 activity remaining in the presence of 25uM inhibitor
Rattus norvegicus = species: Rattus norvegicus; assay: Percentage AMPK activity remaining in the presence of 25uM inhibitor
Homo sapiens = species: Homo sapiens; assay: Percentage PHK activity remaining in the presence of 25uM inhibitor
[3] = target: Serine/threonine-protein kinase pim-2 (Homo sapiens, UniProt Q9P1W9); assay: Percentage PIM2 activity remaining in the presence of 25uM inhibitor
[4] = target: Homeodomain-interacting protein kinase 3 (Homo sapiens) (UniProt Q9H422); assay: Percentage HIPK3 activity remaining in the presence of 25uM inhibitor
[5] = target: T2, Serine/threonine-protein kinase Sgk1 (Homo sapiens) (UniProt O00141); assay: Percentage SGK1 activity remaining in the presence of 25uM inhibitor
T2 sequence (whole entry): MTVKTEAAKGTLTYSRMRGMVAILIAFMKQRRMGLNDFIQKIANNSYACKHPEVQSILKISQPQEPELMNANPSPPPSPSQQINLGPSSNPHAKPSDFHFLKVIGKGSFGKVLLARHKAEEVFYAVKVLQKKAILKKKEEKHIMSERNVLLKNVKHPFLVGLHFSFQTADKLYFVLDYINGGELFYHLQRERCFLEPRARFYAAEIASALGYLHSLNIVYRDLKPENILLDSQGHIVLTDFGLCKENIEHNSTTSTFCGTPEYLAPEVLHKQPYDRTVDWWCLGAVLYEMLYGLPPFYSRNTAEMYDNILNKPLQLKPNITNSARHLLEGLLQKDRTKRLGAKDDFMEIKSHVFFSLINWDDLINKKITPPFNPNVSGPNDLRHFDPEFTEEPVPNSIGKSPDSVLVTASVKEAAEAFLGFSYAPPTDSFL

[6] = target: T3, Serine/threonine-protein kinase 3 (Homo sapiens) (UniProt Q13188); assay: Percentage MST2 activity remaining in the presence of 25uM inhibitor
T3 sequence (whole entry): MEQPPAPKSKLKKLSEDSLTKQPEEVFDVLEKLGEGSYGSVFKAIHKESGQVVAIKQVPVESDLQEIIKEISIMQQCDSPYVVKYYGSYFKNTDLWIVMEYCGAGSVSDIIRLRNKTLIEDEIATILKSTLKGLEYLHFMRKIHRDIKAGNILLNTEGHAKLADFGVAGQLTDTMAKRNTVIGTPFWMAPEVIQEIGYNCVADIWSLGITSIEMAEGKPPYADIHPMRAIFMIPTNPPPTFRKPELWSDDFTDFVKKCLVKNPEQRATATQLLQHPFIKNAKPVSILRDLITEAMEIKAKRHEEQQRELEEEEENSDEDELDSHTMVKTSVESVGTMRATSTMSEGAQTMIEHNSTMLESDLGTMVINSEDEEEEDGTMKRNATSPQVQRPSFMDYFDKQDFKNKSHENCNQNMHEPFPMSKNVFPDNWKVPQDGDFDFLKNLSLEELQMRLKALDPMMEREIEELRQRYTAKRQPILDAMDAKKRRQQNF

[7] = target: T4, Mitogen-activated protein kinase 12 (Homo sapiens) (UniProt P53778); assay: Percentage p38-gamma activity remaining in the presence of 25uM inhibitor
T4 sequence (whole entry): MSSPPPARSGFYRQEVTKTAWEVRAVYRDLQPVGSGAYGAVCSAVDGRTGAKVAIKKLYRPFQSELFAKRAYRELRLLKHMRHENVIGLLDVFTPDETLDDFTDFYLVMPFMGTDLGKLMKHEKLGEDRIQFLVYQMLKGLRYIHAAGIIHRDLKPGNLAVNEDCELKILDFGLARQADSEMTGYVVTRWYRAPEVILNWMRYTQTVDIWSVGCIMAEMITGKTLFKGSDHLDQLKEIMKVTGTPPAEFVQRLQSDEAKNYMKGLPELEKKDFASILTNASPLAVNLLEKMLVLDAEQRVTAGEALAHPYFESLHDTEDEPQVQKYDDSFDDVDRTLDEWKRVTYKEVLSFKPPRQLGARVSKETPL

Sequence of Serine/threonine-protein kinase pim-2 (Q9P1W9 whole entry, looked up): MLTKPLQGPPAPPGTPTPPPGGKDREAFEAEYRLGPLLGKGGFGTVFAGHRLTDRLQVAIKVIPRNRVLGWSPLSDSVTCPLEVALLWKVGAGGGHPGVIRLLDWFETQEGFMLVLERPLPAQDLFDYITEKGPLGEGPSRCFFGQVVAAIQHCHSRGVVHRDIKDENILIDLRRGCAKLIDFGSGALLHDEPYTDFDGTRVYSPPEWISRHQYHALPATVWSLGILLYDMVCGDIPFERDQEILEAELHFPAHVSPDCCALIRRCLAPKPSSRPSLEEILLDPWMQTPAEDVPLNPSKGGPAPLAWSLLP
Sequence of Serine/threonine-protein kinase Nek6 (Homo sapiens) (Q9HC98 whole entry): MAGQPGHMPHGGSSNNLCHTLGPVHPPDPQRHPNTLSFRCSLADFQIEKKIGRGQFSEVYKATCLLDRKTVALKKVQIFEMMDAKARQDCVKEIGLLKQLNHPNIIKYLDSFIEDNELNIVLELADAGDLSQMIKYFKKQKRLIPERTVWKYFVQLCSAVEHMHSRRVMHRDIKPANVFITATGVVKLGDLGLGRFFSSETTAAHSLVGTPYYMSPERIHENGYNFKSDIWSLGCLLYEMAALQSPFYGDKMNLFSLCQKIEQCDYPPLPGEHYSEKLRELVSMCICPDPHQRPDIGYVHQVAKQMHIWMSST
Sequence of Homeodomain-interacting protein kinase 3 (Homo sapiens) (Q9H422 whole entry, looked up): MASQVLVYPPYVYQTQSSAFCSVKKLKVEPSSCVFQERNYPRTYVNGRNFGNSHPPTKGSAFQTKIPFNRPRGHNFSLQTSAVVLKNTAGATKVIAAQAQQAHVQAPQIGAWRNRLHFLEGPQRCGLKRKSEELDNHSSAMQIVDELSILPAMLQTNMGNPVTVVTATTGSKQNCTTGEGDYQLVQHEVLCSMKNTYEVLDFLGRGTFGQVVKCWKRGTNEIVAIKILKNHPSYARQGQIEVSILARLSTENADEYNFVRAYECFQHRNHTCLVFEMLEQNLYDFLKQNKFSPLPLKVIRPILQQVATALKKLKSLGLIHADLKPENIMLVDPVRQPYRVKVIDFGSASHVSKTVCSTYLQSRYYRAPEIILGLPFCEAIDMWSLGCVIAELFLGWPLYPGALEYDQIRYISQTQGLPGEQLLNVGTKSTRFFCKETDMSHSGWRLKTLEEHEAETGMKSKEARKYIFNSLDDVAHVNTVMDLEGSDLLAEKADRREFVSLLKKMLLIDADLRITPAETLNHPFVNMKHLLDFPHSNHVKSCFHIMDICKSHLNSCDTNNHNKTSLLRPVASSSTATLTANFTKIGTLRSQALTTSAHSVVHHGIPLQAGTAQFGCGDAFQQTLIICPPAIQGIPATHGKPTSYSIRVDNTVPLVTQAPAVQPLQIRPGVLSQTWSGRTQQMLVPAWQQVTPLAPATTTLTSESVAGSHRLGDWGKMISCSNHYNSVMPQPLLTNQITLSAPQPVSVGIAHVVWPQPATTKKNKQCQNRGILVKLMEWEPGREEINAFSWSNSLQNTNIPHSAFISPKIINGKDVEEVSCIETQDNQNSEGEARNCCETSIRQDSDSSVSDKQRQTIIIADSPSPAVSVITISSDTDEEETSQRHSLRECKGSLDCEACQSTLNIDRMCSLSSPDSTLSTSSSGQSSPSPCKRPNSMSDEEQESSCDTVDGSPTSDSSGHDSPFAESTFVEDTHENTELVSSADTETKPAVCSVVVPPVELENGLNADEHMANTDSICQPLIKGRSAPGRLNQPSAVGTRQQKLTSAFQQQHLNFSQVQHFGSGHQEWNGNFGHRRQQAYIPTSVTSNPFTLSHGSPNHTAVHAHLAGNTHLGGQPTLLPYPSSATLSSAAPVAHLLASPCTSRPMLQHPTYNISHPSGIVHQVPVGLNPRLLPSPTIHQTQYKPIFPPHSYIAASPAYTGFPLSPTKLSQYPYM

| SMILES | Activity [1] | Activity [2] | Activity (Rattus norvegicus) | Activity (Homo sapiens) | Activity [3] | Activity [4] | Activity [5] | Activity [6] | Activity [7] | Activity ([1]; filed as antagonist) | Activity (Rattus norvegicus; filed as antagonist) | Activity ([5]; filed as antagonist) |
| --- | --- | --- | --- | --- | --- | --- | --- | --- | --- | --- | --- | --- |
| COc1cc(OC)c(/C=C2/C(=O)Nc3ccccc32)c(OC)c1 | 89% | 95% | 71% | 86% | 75% | 95% | 79% | 70% | 93% | – | – | – |
| NCCNS(=O)(=O)c1ccc(Cl)c2ccncc12 | – | 90% | – | 72% | 55% | 86% | – | 91% | 102% | 46% | 29% | 25% |
